Key:
[1] = molecular target: T1, Zwf (ZE), glucose-6-phosphate dehydrogenase (Escherichia coli, UniProt P0AC53); test: inhibition of purified enzyme, NADPH formation at […] nm; assay type: biochemical
T1 construct: full-length, C-terminal His-tag, Ni-NTA purified from E. coli, 55 kDa on SDS-PAGE

[2] = molecular target: T2, Gnd (GE), 6-phosphogluconate dehydrogenase (Escherichia coli, UniProt P00350); test: as above; assay type: biochemical
T2 construct: full-length, C-terminal His-tag, Ni-NTA purified from E. coli, 51 kDa on SDS-PAGE
T2 sequence (P00350 1-468): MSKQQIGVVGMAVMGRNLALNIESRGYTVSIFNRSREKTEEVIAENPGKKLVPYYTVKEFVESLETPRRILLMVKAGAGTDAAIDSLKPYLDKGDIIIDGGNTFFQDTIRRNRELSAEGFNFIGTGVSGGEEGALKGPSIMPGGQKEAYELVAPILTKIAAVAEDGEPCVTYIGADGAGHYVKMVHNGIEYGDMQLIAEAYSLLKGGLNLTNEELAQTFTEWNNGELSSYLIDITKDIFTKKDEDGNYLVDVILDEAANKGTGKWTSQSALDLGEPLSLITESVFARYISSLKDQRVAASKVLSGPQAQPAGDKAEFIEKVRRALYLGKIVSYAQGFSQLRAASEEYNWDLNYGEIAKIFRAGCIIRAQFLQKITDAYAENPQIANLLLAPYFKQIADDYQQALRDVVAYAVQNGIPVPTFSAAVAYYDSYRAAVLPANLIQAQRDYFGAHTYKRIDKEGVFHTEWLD

T1 sequence (P0AC53 whole entry): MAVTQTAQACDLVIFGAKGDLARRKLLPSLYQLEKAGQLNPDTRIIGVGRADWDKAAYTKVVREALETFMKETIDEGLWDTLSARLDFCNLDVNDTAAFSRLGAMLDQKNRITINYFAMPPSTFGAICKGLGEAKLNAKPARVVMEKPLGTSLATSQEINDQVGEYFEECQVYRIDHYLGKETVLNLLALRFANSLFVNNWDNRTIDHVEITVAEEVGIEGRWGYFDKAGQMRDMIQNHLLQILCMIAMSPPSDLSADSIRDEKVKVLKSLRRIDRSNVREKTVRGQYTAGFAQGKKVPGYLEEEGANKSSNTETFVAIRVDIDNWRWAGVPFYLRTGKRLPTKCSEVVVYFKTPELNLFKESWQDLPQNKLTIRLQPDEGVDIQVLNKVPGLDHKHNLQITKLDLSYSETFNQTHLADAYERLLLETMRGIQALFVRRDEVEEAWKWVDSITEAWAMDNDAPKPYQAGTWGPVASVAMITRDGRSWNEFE

NC(=O)C1=CN([C@@H]2O[C@H](COP(=O)(O)OP(=O)(O)OC[C@H]3O[C@@H](n4cnc5c(N)ncnc54)[C@H](OP(=O)(O)O)[C@@H]3O)[C@@H](O)[C@H]2O)C=CC1 [NADPH]
Ki [1]: ~40 µM
Ki [2]: ~40 µM

From article PMC5372246, “Co-production of hydrogen and ethanol from glucose in Escherichia coli by activation of pentose-phosphate pathway through deletion of phosphoglucose isomerase (pgi) and overexpression of glucose-6-phosphate dehydrogenase (zwf) and 6-phosphogluconate dehydrogenase (gnd)” (Biotechnology for Biofuels, 2017)
